Assay [1] deals with recombinant H2AK119Ub mono-nucleosomes. The assay is described as follows: Pull downs with WT or H2A K119Ub nucleosomes. The assay is classed as binding. The method, then:
(§1) The flow through was removed, the immobilized bait was incubated with 1-2 μg of purified mammalian mono-nucleosomes from HEK293T cells, recombinant mono-nucleosomes (EpiCypher, 16-0006), recombinant H2AK119Ub mono-nucleosomes (EpiCypher, 16-0020) or recombinant protein for 3 hours at 4° C., and the beads were washed 3× with EB150 buffer and then eluted in 2×LDS with 200 mM DTT with heating at 95° C. for 5 minutes. The pull downs were then visualized by immunoblot analysis or colloidal blue staining.

Assay [2] deals with mammalian mononucleosomes from HEK293T cells. Put plainly: Protein and peptide pull downs with mammalian mononucleosomes. The assay is classed as binding, human. Conditions: for nucleosome binding in pull-down: mammalian mononucleosomes. The method, then:
as §1
Mammalian mononucleosomes were purified from HEK293T cells similar to as previously described (Mashtalir et al. (2014) Mol. Cell 54:392-406). Cells were scraped from plates, washed with cold PBS, and centrifuged at 5,000 rpm for 5 min at 4° C. Pellets were resuspended in hypotonic buffer (EBO: 50 mM Tris HCl, pH 7.5, 1 mM EDTA, 1 mM MgCl2, 0.1% NP40 supplemented with 1 mM DTT, 1 mM PMSF, and protease inhibitor cocktail (Roche, C756U27) and incubated for 5 min on ice. The suspension was centrifuged at 5,000 rpm for 5 min at 4° C., and pellets were resuspended in 5 volumes of EB420 (EBO: 50 mM Tris HCl, pH 7.5, 420 mM NaCl, 1 mM MgCl2, 0.1% NP40 with supplemented with 1 mM DTT and 1 mM PMSF containing protease inhibitor cocktail (Roche, C756U27). Homogenate incubated on rotator for 1 hour at 4° C. The supernatant was then centrifuged at 20,000 rpm (30,000×g) for 1 hour at 4° C. using a SW32Ti rotor. Supernatant was then discarded and chromatin pellet was washed in MNAse buffer (20 mM Tris-HCl pH 7.5, 100 mM KCl, 2 mM MgCl2, 1 mM CaCl2, […] sucrose, 0.1% NP-40, and protease inhibitor cocktail) three times. Following MNase treatment (3 U/mL for 30 min at room temperature, Sigma-Aldrich), the reaction was quenched with 5 mM of EGTA and 5 mM of EDTA. The samples were then centrifuged at 20,000×g for 1 hour at 4° C. to obtain the soluble chromatin fraction. Soluble chromatin fraction was loaded onto 10-30% glycerol gradient (Mashtalir et al. (2014) Mol. Cell 54:392-406) and fractions containing mononucleosomes were isolated and concentrated using centrifugal filter (Amicon, EMD Millipore).

Assay [3] concerns acidic patch mutant nucleosomes (D90N, E92K, and E113K). Put plainly: GST-SSX pull down with acidic patch mutant nucleosomes. It counts as binding. The following applies: H2A D90N, H3 immunoblot. The method, then: as §1
For orientation: Immunoblotting shows a protein as a band on a membrane.

Assay [4] concerns WT, H2AUb or H2BUb nucleosomes. The assay is described as follows: AlphaLisa binding assay with biotinylated nucleosomes. The following applies: 10 nM biotinylated nucleosomes. (Alpha assays give light when donor and acceptor beads are brought close together.)
Assay [5] concerns the target mononucleosomes (Homo sapiens, UniProt O60814+P04908). Put plainly: Peptide competition experiments. The assay is classed as binding. Conditions: SSX 34aa versus SMARCB1 aa351-385.
Assay [6] deals with nucleosome acidic patch. The assay is described as follows: Detection of nucleosome acidic patch interactions by photocrosslinking. Conditions: diazirine probes in nucleosome acidic patch. The assay is classed as binding. The method, then: Briefly, diazirine-containing recombinant nucleosomes (0.5 uM) were incubated with biotinylated SSX peptides (12.5 uM) in binding buffer (20 mM HEPES, pH 7.9, 4 mM Tris, pH 7.5, 150 mM KCl, 10 mM MgCl2, 10% glycerol, and 0.02% (v/v) IGEPAL CA-630) at 30° C. for 30 mins, and cooled on ice for 5 mins. The reaction mixtures were then irradiated at 365 nm for 10 minutes. Reactions were then analyzed by western blotting employing IRDye® 800CW streptavidin on a LI-COR Odyssey® Infrared Imager. Additional details are found in Dao et al. (2019) Nat.

In assay [7] the test system is IMR90 fibroblasts. The assay is described as follows: Peptide hybridization assay. It counts as cell-based. Conditions: methanol-fixed IMR90 fibroblasts, co-stain H2A K119Ub. The method, then: IMR90 fibroblasts were grown on coverslips, washed with PBS and fixed using 100% ice-cold methanol for 3 minutes. Coverslips were then washed with IF wash buffer (PBS 0.1% NP40 1 mM Sodium azide) 3 times. Selected groups were treated with 200 ng/ml of recombinant USP2 catalytic domain (Boston biochem) for 1 hour. Coverslips were then washed 3 times with IF wash buffer and incubated with 2 μM of biotinylated peptides. Coverslips were subsequently washed 3 times with IF wash buffer and fixed in 3% PFA-PBS for 20 minutes. The rest of the procedure followed accordingly to standard IF protocol. In brief, following incubation with primary antibodies, the Anti-rabit Alexa Fluor® 594 and Streptavidin Alexa Fluor® 488 (Life Technologies) secondary antibodies/reagent were used for visualization of primary antibodies or biotinylated peptides. Staining with 4′,6-diamidino-2-phenylindole (DAPI) was used to visualize nuclei. Images were acquired using Zeiss Axio Imager Z2 microscope and images were processed using ImageJ program (NIH).

As for “GST-SSX 78aa: GST-tagged recombinant C-terminal 78 residues of SSX1 (aa 111-188)”, the “affinity to H2A K119Ub-decorated nucleosomes, pulldown” value in assay [1] (H3 immunoblot) was “significantly higher affinity to H2A K119Ub-decorated nucleosomes relative to unmodified nucleosomes or H2B K120Ub nucleosomes”. The “binding across differentially-marked recombinant and mammalian nucleosomes” value in assay [1] (screen of modified mononucleosomes) was “preferentially bound to H2A K119Ub and mammalian nucleosomes over unmodified nucleosomes or nucleosomes with other histone marks”. The “nucleosome binding in pull-down” value in assay [2] was “sufficient for its nucleosomal interactions”. Moreover, in assay [2] (pull-down), the “binding to mammalian versus recombinant, unmodified nucleosomes” value was “stronger than binding to recombinant, unmodified nucleosomes”. Further, the “binding to acidic patch-mutant nucleosomes” value in assay [3] is “near complete loss of SSX binding”. Moreover, in assay [4], the “affinity to H2A K119Ub-decorated nucleosomes, AlphaLisa” value was “significantly higher affinity to H2A K119Ub-decorated nucleosomes relative to unmodified nucleosomes or H2B K120Ub nucleosomes”.

Turning to “SMARCB1 C-term alpha helix: peptide of the SMARCB1 C-terminal alpha helical domain, aa 351-385”, the “reciprocal competition for nucleosome acidic patch binding” value in assay [5] is “unable to outcompete SSX from binding the nucleosomes”.

As to “SSX aa155-188: N-terminally biotinylated peptide of the conserved 34aa region of SSX”, in assay [6], the “histone-SSX crosslinks across the acidic patch” value was “most prominently at positions H2A E56 and H2B E113”. Besides, the “nucleosome binding in pull-down” value in assay [2] is listed as “sufficient for SSX nucleosome binding”. For the same substance, the “labeling of Barr bodies by biotinylated peptide” value in assay [7] is given as “Clear labeling of Barr bodies”.
